Measurements from US20200055839A1 (priority 2017, published 2020).

System: NL-RLuc virus
Experiment: Inhibition of HIV replication (NL-RLuc virus, luciferase readout in MT-2 cells)
Assay type: cell-based
Conditions: Human immunodeficiency virus 1, MT2, 120 h, MT-2 cells infected with NL-RLuc virus, 5 days of incubation, 10% FBS, at least 2 experiments
Procedure, shortened: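 MT-2 cells infected with NL4-3-derived virus carrying Renilla luciferase in place of part of nef, grown 5 days with serial compound dilutions in RPMI 1640/10% FBS. Virus growth read as luciferase expression. EC50 from median effect equation, at least 2 experiments.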

| Structure (SMILES) | EC50 |
| --- | --- |
| Cc1nc(CNC(=O)OC(C)(C)C)c(-c2ccc(OCCc3ccc(F)cc3)cc2)c(N2CCC(C)(C)CC2)c1[C@H](OC(C)(C)C)C(=O)O [Example 23, (S)-2-(tert-Butoxy)-2-(6-(((tert-butoxycarbonyl)amino)methyl)-4-(4,4-dimethylpiperidin-1-yl)-5-(4-(4-fluorophenethoxy)phenyl)-2-methylpyridin-3-yl)acetic acid] | 2 nM |
| Cc1n[nH]cc1-c1nc(C)c([C@H](OC(C)(C)C)C(=O)O)c(N2CCC(C)(C)CC2)c1-c1ccc(OCCc2ccc(F)cc2)cc1 [Example 38, (S)-2-(tert-Butoxy)-2-(4-(4,4-dimethylpiperidin-1-yl)-5-(4-(4-fluorophenethoxy)phenyl)-2-methyl-6-(3-methyl-1H-pyrazol-4-yl)pyridin-3-yl)acetic acid] | 8 nM |
| Cc1ncc(-c2ccc(C(F)(F)CC(C)C)cn2)c(N2CCC(C)(C)CC2)c1[C@H](OC(C)(C)C)C(=O)O [Example 274, (S)-2-(tert-Butoxy)-2-(5-(1,1-difluoro-3-methylbutyl)-4′-(4,4-dimethylpiperidin-1-yl)-6′-methyl-[2, 3′-bipyridin]-5′-yl)acetic acid] | 16 nM |
| Cc1ncc(-c2ccc(/C=C\C(C)C)nc2)c(N2CCC(C)(C)CC2)c1[C@H](OC(C)(C)C)C(=O)O [Example 422, (S,Z)-2-(tert-Butoxy)-2-(4-(4,4-dimethylpiperidin-1-yl)-6-methyl-6′-(3-methylbut-1-en-1-yl)-[3, 3′-bipyridin]-5-yl)acetic acid] | 10 nM |
| Cc1ncc(-c2cnc(OC(C)CC(C)C)c(F)c2)c(N2CCC(C)(C)CC2)c1[C@H](OC(C)(C)C)C(=O)O (stereo partly drawn) [Example 384, (2S)-2-(tert-butoxy)-2-[4-(4,4-dimethylpiperidin-1-yl)-5′-fluoro-6-methyl-6′-[(4-methylpentan-2-yl)oxy]-[3,3′-bipyridine]-5-yl]acetic acid] | 9 nM |
| Cc1cc(F)c(F)c(-c2cnc(C)c([C@H](OC(C)(C)C)C(=O)O)c2N2CCC(C)(C)CC2)c1 [Example 170, (2S)-2-(tert-Butoxy)-2-[5-(2,3-difluoro-5-methylphenyl)-4-(4,4-dimethylpiperidin-1-yl)-2-methylpyridin-3-yl]acetic acid] | 19 nM |
| Cc1ncc(-c2cnc(OCCc3ccc(F)cc3)c(Cl)c2)c(N2CCC(C)(C)CC2)c1[C@H](OC(C)(C)C)C(=O)O [Example 250, (S)-2-(tert-Butoxy)-2-(5′-chloro-4-(4,4-dimethylpiperidin-1-yl)-6′-(4-fluorophenethoxy)-6-methyl-[3, 3′-bipyridin]-5-yl)acetic acid] | 2 nM |
| Cc1nc(NCCN2CCCCC2)c(-c2ccc(OCCc3ccc(F)cc3)cc2)c(N2CCC(C)(C)CC2)c1[C@H](OC(C)(C)C)C(=O)O [Example 29, (S)-2-(tert-Butoxy)-2-(4-(4,4-dimethylpiperidin-1-yl)-5-(4-(4-fluorophenethoxy)phenyl)-2-methyl-6-((2-(piperidin-1-yl)ethyl)amino)pyridin-3-yl)acetic acid] | 0.2 nM |
| Cc1nc(C(N)=O)c([C@H](OC(C)(C)C)C(=O)O)c(N2CCC(C)(C)CC2)c1-c1ccc(OCCc2ccc(F)cc2)cc1 [Example 6, (S)-2-(tert-Butoxy)-2-(2-carbamoyl-4-(4,4-dimethylpiperidin-1-yl)-5-(4-(4-fluorophenethoxy)phenyl)-6-methylpyridin-3-yl)acetic acid] | 14 nM |
| Cc1nc(Nc2ccc(C#N)cn2)c(-c2ccc(OCCc3ccc(F)cc3)cc2)c(N2CCC(C)(C)CC2)c1[C@H](OC(C)(C)C)C(=O)O [Example 109, (S)-2-(tert-Butoxy)-2-(6-((5-cyanopyridin-2-yl)amino)-4-(4,4-dimethylpiperidin-1-yl)-5-(4-(4-fluorophenethoxy)phenyl)-2-methylpyridin-3-yl)acetic acid] | 13 nM |
| Cc1nc(C(=O)N[C@H]2CC[C@H](C)CC2)c(-c2ccc(OCCc3ccc(F)cc3)cc2)c(N2CCC(C)(C)CC2)c1[C@H](OC(C)(C)C)C(=O)O [Example 12, (S)-2-(tert-Butoxy)-2-(4-(4,4-dimethylpiperidin-1-yl)-5-(4-(4-fluorophenethoxy)phenyl)-2-methyl-6-(((1 r, 4S)-4-methylcyclohexyl)carbamoyl)pyridin-3-yl)acetic acid] | 4 nM |
| Cc1nc(CO)c(-c2ccc(F)c(F)c2)c(N2CCC(C)(C)CC2)c1[C@H](OC(C)(C)C)C(=O)O [Example 140, (2S)-2-(tert-Butoxy)-2-[5-(3,4-difluorophenyl)-4-(4,4-dimethylpiperidin-1-yl)-6-(hydroxymethyl)-2-methylpyridin-3-yl]acetic acid] | 53 nM |
| Cc1cccc(CCOc2ccc(-c3cnc(C)c([C@H](OC(C)(C)C)C(=O)O)c3N3CCC(C)(C)CC3)cc2)c1 [Example 365, (2S)-2-(tert-butoxy)-2-[4-(4,4-dimethylpiperidin-1-yl)-2-methyl-5-{4-[2-(3-methylphenyl)ethoxy]phenyl}pyridin-3-yl]acetic acid] | 2 nM |
| Cc1ncc(-c2cccc(F)c2C)c(N2CCC(C)(C)CC2)c1[C@H](OC(C)(C)C)C(=O)O [Example 160, (2S)-2-(tert-Butoxy)-2-[4-(4,4-dimethylpiperidin-1-yl)-5-(3-fluoro-2-methylphenyl)-2-methylpyridin-3-yl]acetic acid] | 13 nM |
| Cc1ncc(-c2ccc(OCCc3ccc(F)cc3)c(Cl)c2)c(N2CCC(C)(C)CC2)c1[C@H](OC(C)(C)C)C(=O)O [Example 235, (S)-2-(tert-Butoxy)-2-(5-(3-chloro-4-(4-fluorophenethoxy)phenyl)-4-(4,4-dimethylpiperidin-1-yl)-2-methylpyridin-3-yl)acetic acid] | 2 nM |
| Cc1ncc(-c2ccc(OCCc3ccc(F)cc3Cl)cn2)c(N2CCC(C)(C)CC2)c1[C@H](OC(C)(C)C)C(=O)O [Example 310, (2S)-2-(tert-butoxy)-2-{5-[2-(2-chloro-4-fluorophenyl)ethoxy]-4′-(4,4-dimethylpiperidin-1-yl)-6′-methyl-[2,3′-bipyridine]-5′-yl}acetic acid] | 0.5 nM |
| Cc1ncc(-c2cnc(OC[C@@H](C)c3ccccc3)c(F)c2)c(N2CCC(C)(C)CC2)c1[C@H](OC(C)(C)C)C(=O)O [Example 388, (2S)-2-(tert-butoxy)-2-[4-(4,4-dimethylpiperidin-1-yl)-5′-fluoro-6-methyl-6′-[(2S)-2-phenylpropoxy]-[3,3′-bipyridine]-5-yl]acetic acid] | 3 nM |
| COc1ccc(-c2cnc(C)c([C@H](OC(C)(C)C)C(=O)O)c2N2CCC(C)(C)CC2)cc1C [Example 178, (2S)-2-(tert-Butoxy)-2-[4-(4,4-dimethylpiperidin-1-yl)-5-(4-methoxy-3-methylphenyl)-2-methylpyridin-3-yl]acetic acid] | 2 nM |
| Cc1ccc(Nc2nc(C)c([C@H](OC(C)(C)C)C(=O)O)c(N3CCC(C)(C)CC3)c2-c2ccc(OCCc3ccc(F)cc3)cc2)c(C)n1 [Example 85, (S)-2-(tert-Butoxy)-2-(4-(4,4-dimethylpiperidin-1-yl)-6-((2,6-dimethylpyridin-3-yl)amino)-5-(4-(4-fluorophenethoxy)phenyl)-2-methylpyridin-3-yl)acetic acid] | 3 nM |
| COc1ccc(-c2cnc(C)c([C@H](OC(C)(C)C)C(=O)O)c2N2CCC(C)(C)CC2)c(F)c1F [Example 149, (2S)-2-(tert-Butoxy)-2-[5-(2,3-difluoro-4-methoxyphenyl)-4-(4,4-dimethylpiperidin-1-yl)-2-methylpyridin-3-yl]acetic acid] | 6 nM |
| COc1c(F)cccc1-c1cnc(C)c([C@H](OC(C)(C)C)C(=O)O)c1N1CCC(C)(C)CC1 [Example 166, (2S)-2-(tert-Butoxy)-2-[4-(4,4-dimethylpiperidin-1-yl)-5-(3-fluoro-2-methoxyphenyl)-2-methylpyridin-3-yl]acetic acid] | 11 nM |
| Cc1ncc(-c2cc(F)c(F)c(F)c2)c(N2CCC(C)(C)CC2)c1[C@H](OC(C)(C)C)C(=O)O [Example 129, (2S)-2-(tert-Butoxy)-2-[4-(4,4-dimethylpiperidin-1-yl)-2-methyl-5-(3,4,5-trifluorophenyl)pyridin-3-yl]acetic acid] | 3 nM |
| Cc1nc(C(N)=O)c(-c2ccc(OCCc3ccc(F)cc3)cc2)c(N2CCC(C)(C)CC2)c1[C@H](OC(C)(C)C)C(=O)O [Example 13, (S)-2-(tert-Butoxy)-2-(6-carbamoyl-4-(4,4-dimethylpiperidin-1-yl)-5-(4-(4-fluorophenethoxy)phenyl)-2-methylpyridin-3-yl)acetic acid] | 10 nM |
| Cc1ncc(-c2ccc(OCCc3ccc(F)cc3)nc2)c(N2CCC(C)(C)CC2)c1[C@H](OC(C)(C)C)C(=O)O [Example 254, (S)-2-(tert-Butoxy)-2-(4-(4,4-dimethylpiperidin-1-yl)-6′-(4-fluorophenethoxy)-6-methyl-[3,3′-bipyridin]-5-yl)acetic acid] | 0.6 nM |
| Cc1ncc(-c2cc(F)c(OCCc3ccc(F)cc3)c(F)c2)c(N2CCC(C)(C)CC2)c1[C@H](OC(C)(C)C)C(=O)O [Example 127, (S)-2-(tert-Butoxy)-2-(5-(3,5-difluoro-4-(4-fluorophenethoxy)phenyl)-4-(4,4-dimethylpiperidin-1-yl)-2-methylpyridin-3-yl)acetic acid] | 4 nM |
| COc1ccc(CCOc2ncc(-c3cnc(C)c([C@H](OC(C)(C)C)C(=O)O)c3N3CCC(C)(C)CC3)cc2F)cc1C [Example 391, (2S)-2-(tert-butoxy)-2-[4-(4,4-dimethylpiperidin-1-yl)-5′-fluoro-6′-[2-(4-methoxy-3-methylphenyl)ethoxy]-6-methyl-[3,3′-bipyridine]-5-yl]acetic acid] | 4 nM |
| Cc1ncc(-c2ncc3ccccc3n2)c(N2CCC(C)(C)CC2)c1[C@H](OC(C)(C)C)C(=O)O [Example 267, (S)-2-(tert-Butoxy)-2-(4-(4,4-dimethylpiperidin-1-yl)-2-methyl-5-(quinazolin-2-yl)pyridin-3-yl)acetic acid] | 9 nM |
